# Experimental data: the supplement of paper PMC10883282
# ± gives the standard deviation of the averaged measurements.
# System: HS729
# Test: relative viability vs DMSO control (72 h) (fraction); higher = more viable cells
# Procedure, shortened: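 Sarcoma cell lines were seeded in 384-well plates at densities chosen for 80–90% confluence, then 24 h later given 2.5 µl of serially diluted compound drawn from source plates spanning 10 mM to 0.0002 mM. They were held 72 h at 37 °C, 5% CO2, with 0.1% DMSO vehicle and a 5 µM positive control included. Relative viability was read with ATPLite as percent growth and averaged over up to triplicate wells. Rescaling placed full at 1 and none at 0.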
Structure (SMILES),relative viability (0.00017 µM),relative viability (0.00051 µM),relative viability (0.00152 µM),relative viability (0.00457 µM),relative viability (0.01372 µM),relative viability (0.04115 µM),relative viability (0.1235 µM),relative viability (0.3704 µM),relative viability (1.111 µM),relative viability (3.333 µM),relative viability (10 µM)
COc1cc2/c(=N/c3ccc(Br)cc3F)nc[nH]c2cc1OCC1CCN(C)CC1 [Vandetanib],0.915 ± 0.04,0.896 ± 0.083,0.899 ± 0.031,0.8994 ± 0.0041,0.871 ± 0.022,0.843 ± 0.047,0.857 ± 0.026,0.834 ± 0.068,0.746 ± 0.055,0.663 ± 0.03,0.028 ± 0.0075
CCc1cc2c(cc1N1CCC(N3CCOCC3)CC1)C(C)(C)c1[nH]c3cc(C#N)ccc3c1C2=O [Alectinib],0.923 ± 0.021,0.962 ± 0.027,0.958 ± 0.035,0.938 ± 0.073,0.972 ± 0.047,0.987 ± 0.021,0.937 ± 0.029,0.941 ± 0.045,1 ± 0.058,0.933 ± 0.022,1.02 ± 0.024
Cc1nc(-c2cn3c(n2)-c2ccc(-c4cnn(C(C)(C)C(N)=O)c4)cc2OCC3)n(C(C)C)n1 [Taselisib],0.913 ± 0.018,0.935 ± 0.041,0.893 ± 0.045,0.891 ± 0.076,0.798 ± 0.066,0.756 ± 0.062,0.644 ± 0.053,0.629 ± 0.019,0.5241 ± 0.0042,0.487 ± 0.013,0.429 ± 0.014
O=C(Cc1ccc(-c2ccc(OCCN3CCOCC3)cc2)cn1)NCc1ccccc1 [KX2-391],1.09 ± 0.061,1.02 ± 0.096,0.943 ± 0.046,0.959 ± 0.069,0.912 ± 0.019,0.792 ± 0.064,0.623 ± 0.018,0.562 ± 0.024,0.521 ± 0.029,0.501 ± 0.048,0.475 ± 0.019
